Source: patent US20200246380A1, “Pharmaceutical Composition for Preventing or Treating Autoimmune Disease, and Method for Producing Same” (priority 2017, published 2020)

Experiments:
Format in all cases: cell-based, C57BL/6 mice
[1] = tested on: plasmacytoid dendritic cells; test: Cytokine secretion from pDC according to treatment time of toll-like receptor agonist, ELISA (Example 4); conditions: agonist applied at start of differentiation (0 day treatment) or 3 days thereafter; ODN1826 24 hours; vs no-treatment
From the text: Differentiation into the plasmacytoid dendritic cells was induced by the same method as in Example 1 in order to check the immune tolerance inducing effect of the toll-like receptor agonist according to the treatment time point. Further, the toll-like receptor agonists were applied at the start time of the differentiation (0-day treatment) and were applied on 3 days after the start of differentiation (3 day treatment). After the total 8 days culturing, the plasmacytoid dendritic cells were isolated therefrom at a purity equal to or greater than 85% using a plasmacytoid dendritic cell separation kit (Miltenyi Biotec, Auburn, Calif.) and a magnetic cell sorting system (Vario MACS: Miltenyi Biotec, Auburn, Calif.). The separated cells (5×10^5 cells/ml) were inoculated into a 48 well plate. ODN1826 (1 μg/ml) was applied thereto and the cells were cultured for 24 hours. Then, supernatant was separated. The secretion pattern of the cytokine was then checked by ELISA (enzyme linked immunosorbent assay). In this connection, in order to check the effect from the treatment using the toll-like receptor agonist, the case in which the toll-like receptor agonist was not applied thereto during the differentiation of the immature dendritic cells is shown as Comparative Example (no-treatment, non).

[2] = tested on: plasmacytoid dendritic cells; test: IL-10 secretion from pDC induced with various toll-like receptor agonists, ELISA (Example 3); conditions: pDC stimulated with ODN1826 (1 μg/ml), 24 hours; vs non-treatment
Procedure: Ligands listed in Table 2 were used as the toll-like receptor agonist. […] The separated cells (5×10^5 cells/ml) were inoculated into a 48 well plate. ODN1826 (1 μg/ml) was applied thereto and the cells were cultured for 24 hours. Then, supernatant was separated. The secretion pattern of the immunosuppressive cytokine IL-10 was then checked by ELISA (enzyme linked immunosorbent assay). In this connection, in order to check the effect from the treatment using the toll-like receptor agonist, the case in which the toll-like receptor agonist was not applied thereto during the differentiation of the immature dendritic cells is shown as Comparative Example (non).

immature dendritic cells = test: Differentiation of immature dendritic cells into plasmacytoid dendritic cells with toll-like receptor agonist (Example 1); conditions: Pam3 100 to 500 ng/ml on third day of Flt3L differentiation; treatment vs non-treatment
Procedure: Specifically, thigh bone marrow samples were collected from C57BL/6 mice using bone marrow collecting syringes. The collected bone marrow was washed with phosphate buffered saline (PBS), and red blood cells were removed therefrom using ammonium chloride. Separated cells (3×10^6 cells/well) were inoculated in a 6-well plate. Then, 1 ml of RPMI 1640 containing 10% FBS (fetal bovine serum), 2 mM L-glutamine, 100 U/ml penicillin/streptomycin, 50 μM mercaptoethanol, 0.1 mM non-essential amino acid, 1 mM sodium pyruvate and 250 ng/ml FLT3L was added thereto to initiate culture and differentiation of the cells. On the third day after the start of differentiation, Pam3 was applied thereto at a concentration of 100 to 500 ng/ml. On 5 days from the start of differentiation, 1 ml of the RPMI 1640 was further supplemented thereto. The cells were cultured for 8 days. […] Further, in the case (TLRs-pDC) when the immature dendritic cells were treated with the toll-like receptor agonist, the ratio of the number of plasmacytoid dendritic cells obtained after the eighth day to the number of the initial immature dendritic cells was measured. […]

## Pam3 [TLR2 agonist]
[1]
  expression level of IFN-α: inhibited
  expression level of IFN-β: inhibited
  expression level of IL-10: significantly increased
  expression level of IL-12p70: inhibited
  expression level of TNF-α: inhibited
[2]
  expression level of IL-10 from pDC differentiated via treatment with the agonist: significantly increased
Immature dendritic cells
  differentiation efficiency into plasmacytoid dendritic cells: no difference

## LPS [TLR4 agonist]
[2]
  expression level of IL-10 from pDC differentiated via treatment with the agonist: significantly increased

## CC(C)Cn1cnc2c(N)nc3ccccc3c21 [TLR7 agonist, Imiquimod]
[2]
  expression level of IL-10 from pDC differentiated via treatment with the agonist: significantly increased
